According to patent US20250281499A1, “FUSED AMINO PYRIMIDINE COMPOUNDS FOR TREATMENT OF NEUROPATHIC AND NEURO-INFLAMMATORY PAIN” (Ovid Therapeutics Inc., priority 2024, published 2025):

Biological target: T1, KCC2 (Homo sapiens, UniProt Q9H2X9)
T1 construct: expressed in transfected cells; host or cells: HEK-293 (ATCC CRL-1573), Lipofectamine 2000, used 48-72 h after transfection
T1 sequence (Q9H2X9 1-1116 isoform Q9H2X9-2): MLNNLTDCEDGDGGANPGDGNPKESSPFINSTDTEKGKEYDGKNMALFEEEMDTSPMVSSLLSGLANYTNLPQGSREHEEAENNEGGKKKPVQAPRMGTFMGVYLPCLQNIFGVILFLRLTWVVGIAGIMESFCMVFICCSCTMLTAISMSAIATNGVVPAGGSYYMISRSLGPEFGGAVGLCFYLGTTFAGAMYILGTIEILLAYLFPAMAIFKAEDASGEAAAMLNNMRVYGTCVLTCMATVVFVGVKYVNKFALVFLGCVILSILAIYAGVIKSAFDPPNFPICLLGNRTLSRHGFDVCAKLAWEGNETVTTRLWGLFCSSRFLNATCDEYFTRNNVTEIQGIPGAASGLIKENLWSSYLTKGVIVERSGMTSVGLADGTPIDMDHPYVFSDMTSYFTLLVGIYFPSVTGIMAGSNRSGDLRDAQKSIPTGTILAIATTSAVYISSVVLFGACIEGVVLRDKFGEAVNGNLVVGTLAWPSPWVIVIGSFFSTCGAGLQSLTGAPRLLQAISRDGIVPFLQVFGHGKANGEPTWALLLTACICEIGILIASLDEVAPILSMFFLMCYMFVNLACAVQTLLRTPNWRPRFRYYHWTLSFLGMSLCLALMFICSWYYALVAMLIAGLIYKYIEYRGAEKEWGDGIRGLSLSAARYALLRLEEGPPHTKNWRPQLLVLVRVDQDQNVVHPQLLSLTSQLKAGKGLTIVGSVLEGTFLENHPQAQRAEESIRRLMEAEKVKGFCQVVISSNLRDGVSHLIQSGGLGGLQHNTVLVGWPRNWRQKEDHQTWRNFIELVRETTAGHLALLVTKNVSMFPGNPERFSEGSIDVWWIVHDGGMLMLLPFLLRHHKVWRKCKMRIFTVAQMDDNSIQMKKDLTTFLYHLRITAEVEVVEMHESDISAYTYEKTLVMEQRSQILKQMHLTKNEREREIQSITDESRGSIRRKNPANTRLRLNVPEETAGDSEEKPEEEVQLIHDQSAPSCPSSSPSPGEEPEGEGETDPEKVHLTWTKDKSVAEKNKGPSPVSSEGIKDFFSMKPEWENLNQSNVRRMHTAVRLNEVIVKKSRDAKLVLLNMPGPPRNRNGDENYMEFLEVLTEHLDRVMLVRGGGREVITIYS
Experiment: FLIPR thallium (Tl+) flux assay in HEK-293 cells expressing KCC2
Assay type: cell-based
Settings: saturating concentration of 3 μM, 1% BCD vehicle
Procedure: A multi-tiered high-throughput screening assay was used, leveraging a proprietary library of 1.3 million small molecule compounds from AstraZeneca (Cambridge, UK) to identify chemical entities capable of activating KCC2. A single point concentration of 30 μM was used to identify potassium flux using an established thallium (TI+) influx FLIPR assay as the primary read out in HEK-293 cells overexpressing KCC2 (Cardarelli et al., Nat. Med. 23, 1394-1396 (2017); Conway et al., J Biol Chem 292, 21253-21263 (2017); Lee et al., 2022, supra).
Cell Culture and biotinylation. […]
FLIPR TI Flux assay. HEK-293 cells were washed with HBSS, and then incubated with loading buffer containing TI sensitive fluorescent dye (https://www.moleculardevices.com), 20 μM bumetanide 20 μM ouabain and 2.5 mM probenecid for 1 h at room temperature (RT) under control conditions or with drugs in the dark using a FlexStation 3 microplate reader (Molecular Devices) and imaged […] for 30 min. Stimulus buffer was added containing 5 mM K^+/0.5 mM Tl^+ and cells were imaged every 1.5 over a 190 second time course The initial rate Tl^+ uptake (Relative Fluorescence Units (RFU) per second) was determined following addition of the stimulus buffer as outlined previously (Conway et al., 2017, supra) (Lee et al., 2022, supra). […]

## C[C@@H]1CN(c2nc3c(c(Nc4ccc(C5CCCCC5)cc4)n2)COC3)CCO1 [Compound A, (R)—N-(4-cyclohexylphenyl)-2-(2-methylmorpholino)-5,7-dihydrofuro[3,4-d]pyrimidin-4-amine]
  maximum potentiation of KCC2: 90%
